# Laboratory results published in US7799775B2, “Pyrimidine derivatives” (ASKA Pharmaceutical Co., Ltd., priority 2004, dated 2010).
# What was measured:
# [1] = biological target: T1, human 5-HT3 receptor (Homo sapiens, UniProt P46098); test: Measurement of affinity to human 5-HT3 receptor (in vitro), [3H]BRL-43694 binding; conditions: test compound 100 nmols/L; [3H]BRL-43694 0.5 nmols/L; HEK-293 cell membrane expressing human 5-HT3 receptor; read-out: Percent Inhibition (%) on Each Receptor's Binding at 10^−7M, 5-HT3
# T1 construct: purchased BIOLINKS K.K; host or cells: HEK-293 cells (membrane preparation)
# T1 sequence (P46098 24-478): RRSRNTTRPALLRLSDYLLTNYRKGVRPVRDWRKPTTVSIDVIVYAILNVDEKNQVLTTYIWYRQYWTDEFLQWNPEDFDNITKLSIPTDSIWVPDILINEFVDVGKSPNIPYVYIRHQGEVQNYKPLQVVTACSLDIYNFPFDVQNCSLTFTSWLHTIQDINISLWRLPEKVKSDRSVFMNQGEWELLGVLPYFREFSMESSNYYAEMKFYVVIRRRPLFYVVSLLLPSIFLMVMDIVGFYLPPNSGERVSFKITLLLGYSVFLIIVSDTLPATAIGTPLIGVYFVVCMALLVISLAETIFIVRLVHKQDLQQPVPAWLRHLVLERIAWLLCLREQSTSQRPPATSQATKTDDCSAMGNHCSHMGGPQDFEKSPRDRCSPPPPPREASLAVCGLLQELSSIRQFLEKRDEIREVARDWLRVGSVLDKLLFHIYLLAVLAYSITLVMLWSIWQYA
# In short: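 Membranes from HEK-293 cells expressing the receptor were incubated with 0.5 nmol/L radioligand and compound for 60 min at 25 °C in Tris/MgCl2/EDTA buffer, pH 7.5. Bound radioactivity was collected by filtration and counted. Percent inhibition was corrected for non-specific binding defined with 10 μmol/L tropisetron; compounds were tested at 100 nmol/L.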
# [2] = test system: rats under restraint stress; test: Measurement of defecation acceleration in rats under restraint stress; format: in vivo, rat; conditions: 1 hour restraint stress, group average (Normal 1.7, Control 6.8)
# Protocol: (5) Measurement of Defecation Acceleration in Rats under Restraint Stress […] Feed and drinking water were left for their free ingestion until the morning of the day on which the test was given. On the day of the experiment, test compounds were orally administered and positive control solution (the used compounds were dissolved in 1N-hydrochloric acid and diluted with a suitable amount of saline) was administered intraperitoneally. Five (5) minutes thereafter, under lightly anesthetized condition, the rats were placed under restraint stress, with their upper half of the bodies including the front feet immobilized with gum tape. The restraint stress loading was conducted for an hour, and the number of excrements discharged during that period was counted. […] Those compounds which were used as the positive control chemicals used in the acceleration of defecation in rats under restraint stress are identified with the following structures.
# [3] = biological target: T2, 5-HT1A receptor (Rattus norvegicus, UniProt P19327); test: Measurement of 5-HT1A receptor agonistic action on rats (in vivo): lower lip retraction and flat body posture; conditions: SD male rats, 10 mg/kg intraperitoneal; maximum of group evaluation points, 4 grades 0-3, observed 5-30 min after administration
# T2 construct: from tissue; host or cells: whole animal (SD male rats), behavioural read-out
# T2 sequence (P19327 1-422): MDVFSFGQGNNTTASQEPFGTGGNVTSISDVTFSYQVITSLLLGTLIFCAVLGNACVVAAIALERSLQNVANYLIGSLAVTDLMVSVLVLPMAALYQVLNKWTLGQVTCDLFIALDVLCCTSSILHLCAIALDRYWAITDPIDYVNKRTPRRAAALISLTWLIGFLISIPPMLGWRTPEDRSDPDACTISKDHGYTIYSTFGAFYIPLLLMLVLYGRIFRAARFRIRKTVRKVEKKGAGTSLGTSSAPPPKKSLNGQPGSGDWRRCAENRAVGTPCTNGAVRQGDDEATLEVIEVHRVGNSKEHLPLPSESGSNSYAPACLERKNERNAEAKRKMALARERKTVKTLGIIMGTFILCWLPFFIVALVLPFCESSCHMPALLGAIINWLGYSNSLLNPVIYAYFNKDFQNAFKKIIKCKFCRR
# Protocol: (3) Measurement of 5-HT1A Receptor Agonistic Action on Rats (in Vivo):
# Seven weeks old SD male rats were divided into 4-5 rats per group which were accustomized to the experimental environments twice. A week after the second accustomization, the rats were put into a transparent plastic case, and 10 mg/kg of a test compound (as dissolved in 1N-hydrochloric acid and diluted with suitable amount of saline) was intraperitoneally administered thereto. Immediately before the administration and 5, 10, 20 and 30 minutes after the administration, behaviors of the rats were observed as to lower lip retraction (LLP) and flat body posture (FBP). The results were evaluated in 4 grades (0: no reaction, 1: feeble reaction, 2: medium reaction, 3: maximum reaction).
smiles,measurement,setting,value
"Cn1c(CCCCN2CCN(c3ccc4ccccc4n3)CC2)nc2ccccc2c1=O [Example 7-20, 3-methyl-2-[4-(4-quinolin-2-ylpiperazin-1-yl)butyl]-3H-quinazolin-4-one]",inhibition at 0.1 µM,[1],92.9%
same,Number of excrements,[2]; 1 mg/kg oral administration,5.4
same,Number of excrements,[2]; 3 mg/kg oral administration,3.6
same,Number of excrements,[2]; 10 mg/kg oral administration,2.4
same,"5-HT1A Receptor Agonistic Action on Rats, FBP",[3],1.8
same,"5-HT1A Receptor Agonistic Action on Rats, LLR",[3],1.6
